Experimental data taken from patent US11465984B2, “Compound having ERK kinase inhibitory activity and use thereof” (SHANGHAI HAIHE PHARMACEUTICAL CO., LTD., priority 2017, dated 2022).

biological target: ERK2 kinase (Homo sapiens (Human), UniProt P28482); assay: In vitro enzyme activity assay, ERK2 kinase (Z'-LYTE); type: biochemical; conditions: class symbols; read-out: ERK2 IC50
Experimental: Half inhibitory activity of the compounds of the invention against ERK2 kinase (IC50 value) was determined in this Example.
• Enzyme: extracellular signal-regulated kinase ERK2 kinase (PV3595, Invitrogen) • Kit: Z′-LYTE® Protein Kinase Assay Kit-Ser/Thr 3 Peptide (PV3176, Invitrogen) • Kit components: The substrate Z′-LYTE™ Ser/Thr 3 Peptide (PV3200) • The phosphorylation substrate Z′-LYTE™ Ser/Thr 3 Phospho-peptide (PV3215) • 5× kinase buffer: 250 mM HEPES (pH 7.5), 50 mM MgCl2, • 5 mM EGTA, 0.05% BRIJ-35 (PV3189, Invitrogen) • ATP (PV3227, Invitrogen) • Development Reagent A (PV3295, Invitrogen) • Development Buffer (P3127, Invitrogen) • Stop Reagent (P3094, Invitrogen) • Microplate reader: The multil-mode microplate reader PerkinElmer EnVision® • Microplate: black shallow 384-well microplate (6008269, PerkinElmer) (2). Assay Protocol:
The substrate Z′-LYTE™ Ser/Thr 3 Peptide, the phosphorylation substrate Z′-LYTE™ Ser/Thr 3 Phospho-peptide, 1× kinase buffer (5× kinase buffer was diluted with ultra pure water by five times), ATP, Development Reagent A, Development Buffer, Stop Reagent were balanced to room temperature for use. The screening concentrations for detecting the effect of the compounds of the invention on the ERK kinase activity were seven 3-fold serial dilutions starting from 1 μM (from 0.2 μM for the positive drug control) using 4% DMSO as co-solvent. 5 μL enzyme system (50 mM HEPES pH 7.5, 1 mM EGTA, 10 mM MgCl2, 0.01% Brij-35, 4 uM substrate, 0.8 ng/μL enzyme), 2.5 μL Compound, 2.5 μL 400 μM ATP were added into 384 well microplate, followed by incubation at room temperature for 60 min in the dark. After the reaction was completed, 5 μl the developing agent (Development Reagent A) diluted with the developing buffer (Development Buffer) was added to all reaction wells, followed by incubation at the room temperature for 60 min in the dark. 5 μL the terminating agent was added to each well to terminate the reaction. The fluorescence was determined using the multil-mode microplate reader PerkinElmer EnVision® (excitation wavelength 400 nm, emission wavelength 460 nm and 528 nm).
The inhibition rate of each well was calculated from 100% phosphorylation substrate well and 0% phosphorylation substrate well using the data analysis method below: phosphorylation %=1−{(emission rate×F100%−C100%)/[C0%−C100%+emission rate×(F100%−F0%)]}×100 inhibition %=100×(1−phosphorylation % of the test compound well/phosphorylation % of the 0% inhibition control) • wherein: • emission rate=fluorescence emission of the sample at 445 nm/fluorescence emission of the sample at 520 nm • F100%=the average fluorescence emission of the control well of 100% phosphorylation substrate at 520 nm • F0%=the average fluorescence emission of the control well of 0% phosphorylation substrate at 520 nm • C100%=the average fluorescence emission of the control well of 100% phosphorylation substrate at 445 nm • C0%=the average fluorescence emission of the control well of 0% phosphorylation substrate at 445 nm
Tests were carried out in duplicate. IC50 values were calculated from the inhibition of the kinase by the test compounds at a range of different concentrations.

Chain of ERK2 kinase (P28482 whole entry): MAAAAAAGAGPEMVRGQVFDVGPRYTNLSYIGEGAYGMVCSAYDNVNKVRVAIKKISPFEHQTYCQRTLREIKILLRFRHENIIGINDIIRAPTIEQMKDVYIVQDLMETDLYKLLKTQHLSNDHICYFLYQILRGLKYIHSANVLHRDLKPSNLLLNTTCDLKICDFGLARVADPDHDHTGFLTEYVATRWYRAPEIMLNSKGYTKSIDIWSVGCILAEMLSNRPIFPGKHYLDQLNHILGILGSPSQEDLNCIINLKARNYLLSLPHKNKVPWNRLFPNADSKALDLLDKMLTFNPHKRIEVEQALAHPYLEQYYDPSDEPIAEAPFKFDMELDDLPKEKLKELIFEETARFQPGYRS

How did the IC50 turn out when Cc1cnc(Nc2ccnn2C)nc1-c1cc(F)c2c(c1)CC(C)N2C(=O)Cc1cccnc1Cl (stereo not shown) [Example P48, 2-(2-chloropyridin-3-yl)-1-(7-fluoro-2-methyl-5-(5-methyl-2-((1-methyl-1H-pyrazol-5-yl)amino)pyrimidin-4-yl)indolin-1-yl)ethan-1-one] was run?
The IC50 was at most 10 nM.

For Cn1nccc1Nc1nccc(-c2cc(F)c3c(c2)CCN3C(=O)Cc2cccc(F)c2Cl)n1 [Example P54, 2-(2-chloro-3-fluorophenyl)-1-(7-fluoro-5-(2-((1-methyl-1H-pyrazol-5-yl)amino)pyrimidin-4-yl)indolin-1-yl)ethan-1-one], which IC50 is on record?
The IC50 was 10 to 100 nM.

With Cn1nccc1Nc1cc(-c2cc(F)c3c(c2)CCN3C(=O)Cc2cccc(Cl)n2)ccn1 [Example P29, 2-(6-chloropyridin-2-yl)-1-(7-fluoro-5-(2-((1-methyl-1H-pyrazol-5-yl)amino)pyridin-4-yl)indolin-1-yl)ethan-1-one] as the compound, how does the IC50 read?
Its IC50 is 10 to 100 nM.

Cn1nccc1Nc1nccc(-c2cc(F)c3c(c2)CCN3C(=O)Cc2ccc(F)cc2Cl)n1 [Example P36, 2-(2-chloro-4-fluorophenyl)-1-(7-fluoro-5-(2-((1-methyl-1H-pyrazol-5-yl)amino)pyrimidin-4-yl)indolin-1-yl)ethan-1-one] was tested. Which IC50 did it give?
The IC50 was 10 to 100 nM.

Which IC50 does the source give for Cn1nccc1Nc1nccc(-c2cc(F)c3c(c2)CCN3C(=O)Cc2cnccc2Cl)n1 [Example P56, 2-(4-chloropyridin-3-yl)-1-(7-fluoro-5-(2-((1-methyl-1H-pyrazol-5-yl)amino)pyrimidin-4-yl)indolin-1-yl)ethan-1-one] here?
Its IC50 is 10 to 100 nM.

With Cc1cnc(Nc2ccnn2C)nc1-c1cc(F)c2c(c1)CCN2C(=O)Cc1cccnc1Cl [Example P47, 2-(2-chloropyridin-3-yl)-1-(7-fluoro-5-(5-methyl-2-((1-methyl-1H-pyrazol-5-yl)amino)pyrimidin-4-yl)indolin-1-yl)ethan-1-one] as the compound, how does the IC50 read?
Its IC50 is at most 10 nM.

How did the IC50 turn out when Cn1nccc1Nc1nccc(-c2cc(F)c3c(c2)CCN3C(=O)Cc2cc(F)ccc2Cl)n1 [Example P38, 2-(2-chloro-5-fluorophenyl)-1-(7-fluoro-5-(2-((1-methyl-1H-pyrazol-5-yl)amino)pyrimidin-4-yl)indolin-1-yl)ethan-1-one] was run?
Its IC50 is 10 to 100 nM.

With CC(CCO)Nc1nccc(-c2cc(F)c3c(c2)CCN3C(=O)Cc2cccnc2Cl)n1 (stereo not shown) [Example P7, 2-(2-chloropyridin-3-yl)-1-(7-fluoro-5-(2-((4-hydroxylbutan-2-yl)amino)pyrimidin-4-yl)indolin-1-yl)ethan-1-one] as the compound, how does the IC50 read?
Its IC50 is 10 to 100 nM.

With Cn1nccc1Nc1cc(-c2cc(F)c3c(c2)CCN3C(=O)Cc2cccnc2Cl)ncn1 [Example P44, 2-(2-chloropyridin-3-yl)-1-(7-fluoro-5-(6-((1-methyl-1H-pyrazol-5-yl)amino)pyrimidin-4-yl)indolin-1-yl)ethan-1-one] as the compound, how does the IC50 read?
The IC50 was 10 to 100 nM.

With Cn1nccc1Nc1nccc(-c2cc(F)c3c(c2)CCN3C(=O)Cc2cccnc2Cl)n1 [Example P10, 2-(2-chloropyridin-3-yl)-1-(7-fluoro-5-(2-((1-methyl-1H-pyrazol-5-yl)amino)pyrimidin-4-yl)indolin-1-yl)ethan-1-one] as the compound, how does the IC50 read?
The IC50 was at most 10 nM.

With Cn1nccc1Nc1nccc(-c2cc(F)c3c(c2)CCN3C(=O)Cc2ccc(F)cc2F)n1 [Example P12, 2-(2,4-difluorophenyl)-1-(7-fluoro-5-(2-((1-methyl-1H-pyrazol-5-yl)amino)pyrimidin-4-yl)indolin-1-yl)ethan-1-one] as the compound, how does the IC50 read?
Its IC50 is 10 to 100 nM.

With Cn1nccc1Nc1nccc(-c2cc(F)c3c(c2)CCN3C(=O)Cc2cc(Cl)ccc2F)n1 [Example P34, 2-(5-chloro-2-fluorophenyl)-1-(7-fluoro-5-(2-((1-methyl-1H-pyrazol-5-yl)amino)pyrimidin-4-yl)indolin-1-yl)ethan-1-one] as the compound, how does the IC50 read?
The IC50 was 10 to 100 nM.

Which IC50 does the source give for Cn1nccc1Nc1nccc(-c2cc(Cl)c3c(c2)CCN3C(=O)Cc2cccnc2Cl)n1 [Example P11, 1-(7-chloro-5-(2-((1-methyl-1H-pyrazol-5-yl)amino)pyrimidin-4-yl)indolin-1-yl)-2-(2-chloropyridin-3-yl)ethan-1-one] here?
The IC50 was 10 to 100 nM.

Cn1nccc1Nc1nccc(-c2cc(F)c3c(c2)CCN3C(=O)Cc2ccccc2C#N)n1 [Example P30, 2-(2-(7-fluoro-5-(2-((1-methyl-1H-pyrazol-5-yl)amino)pyrimidin-4-yl)indolin-1-yl)-2-oxoethyl)benzonitrile] was tested. Which IC50 did it give?
The IC50 was 10 to 100 nM.

How did the IC50 turn out when COCC1Cc2cc(-c3ccnc(Nc4ccnn4C)c3)cc(F)c2N1C(=O)Cc1cccnc1Cl (stereo not shown) [Example P58, 2-(2-chloropyridin-3-yl)-1-(7-fluoro-2-(methoxymethyl)-5-(2-((1-methyl-1H-pyrazol-5-yl)amino)pyridin-4-yl)indolin-1-yl)ethan-1-one] was run?
Its IC50 is at most 10 nM.

For Cn1nccc1Nc1nccc(-c2cc(F)c3c(c2F)CCN3C(=O)Cc2cccnc2Cl)n1 [Example P50, 2-(2-chloropyridin-3-yl)-1-(4,7-difluoro-5-(2-((1-methyl-1H-pyrazol-5-yl)amino)pyrimidin-4-yl)indolin-1-yl)ethan-1-one], which IC50 is on record?
The IC50 was 100 to 1000 nM.

Which IC50 does the source give for [2H]C([2H])([2H])n1nccc1Nc1cc(-c2cc(F)c3c(c2)CCN3C(=O)Cc2cccnc2Cl)ccn1 [Example P46, 2-(2-chloropyridin-3-yl)-1-(7-fluoro-5-(2-((1-(deuteriomethyl)-1H-pyrazol-5-yl)amino)pyridin-4-yl)indolin-1-yl)ethan-1-one] here?
The IC50 was at most 10 nM.

For O=C(Cc1cccnc1Cl)N1CCc2cc(-c3ccnc(N[C@H]4C[C@@H](O)C4)c3)cc(F)c21 [Example P40], which IC50 is on record?
The IC50 was 10 to 100 nM.

For O=C(Cc1cccnc1Cl)N1CCc2cc(-c3ccnc(NC4CC4)c3)cc(F)c21 [Example P61, 2-(2-chloropyridin-3-yl)-1-(5-(2-(cyclopropylamino)pyridin-4-yl)-7-fluoroindolin-1-yl)ethan-1-one], which IC50 is on record?
Its IC50 is 10 to 100 nM.

How did the IC50 turn out when Cn1nc(CO)cc1Nc1cc(-c2cc(F)c3c(c2)CCN3C(=O)Cc2cccnc2Cl)ccn1 [Example P35, 2-(2-chloropyridin-3-yl)-1-(7-fluoro-5-(2-((3-(hydroxylmethyl)-1-methyl-1H-pyrazol-5-yl)amino)pyridin-4-yl)indolin-1-yl)ethan-1-one] was run?
The IC50 was 10 to 100 nM.

With Cn1nccc1Nc1nccc(-c2cc(F)c3c(c2)CCN3C(=O)Cc2ccncc2Cl)n1 [Example P37, 2-(3-chloropyridin-4-yl)-1-(7-fluoro-5-(2-((1-methyl-1H-pyrazol-5-yl)amino)pyrimidin-4-yl)indolin-1-yl)ethan-1-one] as the compound, how does the IC50 read?
The IC50 was 10 to 100 nM.

How did the IC50 turn out when Cc1cc(-c2ccnc(Nc3ccnn3C)n2)cc2c1N(C(=O)Cc1cccnc1Cl)CC2 [Example P13, 2-(2-chloropyridin-3-yl)-1-(7-methyl-5-(2-((1-methyl-1H-pyrazol-5-yl)amino)pyrimidin-4-yl)indolin-1-yl)ethan-1-one] was run?
Its IC50 is 100 to 1000 nM.

Which IC50 does the source give for O=C(Cc1cccnc1Cl)N1CCc2cc(-c3ccnc(NC4CCOC4)n3)cc(F)c21 (stereo not shown) [Example P6, 2-(2-chloropyridin-3-yl)-1-(7-fluoro-5-(2-((tetrahydrofuran-3-yl)amino)pyrimidin-4-yl)indolin-1-yl)ethan-1-one] here?
Its IC50 is 10 to 100 nM.

Which IC50 does the source give for Cn1nccc1Nc1cc(-c2cc(Cl)c3c(c2)CCN3C(=O)Cc2cccnc2Cl)ccn1 [Example P14, 1-(7-chloro-5-(2-((1-methyl-1H-pyrazol-5-yl)amino)pyridin-4-yl)indolin-1-yl)-2-(2-chloropyridin-3-yl)ethan-1-one] here?
The IC50 was 10 to 100 nM.

For Cn1nccc1Nc1cc(-c2cc(F)c3c(c2)CCN3C(=O)Cc2ccccc2Cl)ccn1 [Example P31, 2-(2-chlorophenyl)-1-(7-fluoro-5-(2-((1-methyl-1H-pyrazol-5-yl)amino)pyridin-4-yl)indolin-1-yl)ethan-1-one], which IC50 is on record?
Its IC50 is at most 10 nM.

same assay, conditions: read-out: IC50 against ERK2 kinase

How did the IC50 turn out when Cn1nccc1Nc1nccc(-c2cc(F)c3c(c2)CCN3C(=O)Cc2cccnc2Cl)n1 [Example P10, 2-(2-chloropyridin-3-yl)-1-(7-fluoro-5-(2-((1-methyl-1H-pyrazol-5-yl)amino)pyrimidin-4-yl)indolin-1-yl)ethan-1-one] was run?
Its IC50 is 6.1 nM.

For Cn1nccc1Nc1cc(-c2cc(F)c3c(c2)CCN3C(=O)C(O)c2cccnc2Cl)ccn1 (stereo not shown) [Example P60, 2-(2-chloropyridin-3-yl)-1-(7-fluoro-5-(2-((1-methyl-1H-pyrazol-5-yl)amino)pyridin-4-yl)indolin-1-yl)-2-hydroxylethan-1-one], which IC50 is on record?
Its IC50 is 10 nM.

C[C@H]1Cc2cc(-c3ccnc(Nc4ccnn4C)c3)cc(F)c2N1C(=O)Cc1cccnc1Cl [Example P42] was tested. Which IC50 did it give?
The IC50 was 2.7 nM.
